Entries after “also recorded” stand apart in the source; their conditions may differ.
Tests used:
VEGF = test: Gene expression of VEGF by qRT-PCR in HaCaT cells; assay type: cell-based, human; conditions: after 24 hours of cultivation, versus control without DMG, FIG. 3
Procedure: VEGF (Vascular Endothelial Growth Factor) promotes the growth and formation of new blood and lymphatic vessels. Gene expression was measured using a standard method known as quantitative real-time PCR (qRT-PCR).
Human epidermal keratinocyte cells (HaCaT) were seeded in a 6-well plate at a cell density of 140,000 cells/well and cultured in medium (DMEM with 10% FBS, 1% penicillin-streptomycin, 0.5% fungizone) at 37° C. und 5% by volume CO2. The next day, the cell culture medium without (control) or with the active substance concentrations already present in each case was changed, and the cells were harvested after 24 hours. Gene expression was measured using qRT-PCR based on studies already published in B. V. Diaz, M.-C. Lenoir, A. Ladoux, C. Frelin, M. Demarchez, S. Michel, Journal of Biological Chemistry 2000, 275, 642-650.
The relative gene expression determined by qRT-PCR (triple determination, normalized to the respective gene expression of a constitutively expressed gene; GAPDH—glyceraldehyde-3-phosphate dehydrogenase) of VEGF is shown. Shown is the mean value with standard deviation.

[1] = tested on: Human epidermal keratinocyte cells (HaCaT); test: MTT assay, cell viability of HaCaT keratinocytes; assay type: cell-based; conditions: versus control without DMG, FIG. 1
Procedure: (§1) 1. As part of an in vitro study, the effect of Na-dimethylglycinate was examined in a cell culture model with human horn-forming keratinocyte cells. For this purpose, HaCaT cells were cultured for 1, 3, 5, and 7 days in DMEM medium (including fetal calf serum and an anti biotic-anti mycotic mix) and, among other things, the viability and proliferation of the cells were determined using suitable measurement methods, and the expression of the growth factors relevant for cell growth was measured.
For this measurement, a so-called MTT assay was used to determine cellular metabolic activity as an indicator of cell viability and cytotoxicity. This colorimetric assay is based on the reduction of a yellow tetrazolium salt (3-(4,5-dimethylthiazol-2-yl)-2,5-diphenyltetrazolium bromide or MTT) to purple formazan crystals by metabolically active cells.
Human epidermal keratinocyte cells (HaCaT) were seeded in a 96-well plate at a cell density of 5,000 cells/well and cultured in medium (DMEM with 10% FBS, 1% penicillin-streptomycin, 0.5% fungizone). […]
Cell viability was determined using the MTT assay. The absorption was measured in quadruplicate and normalized to the control at 24 hours. […]

[2] = tested on: Human epidermal keratinocyte cells (HaCaT); test: CyQUANT assay, cell proliferation of HaCaT keratinocytes; assay type: cell-based; conditions: versus control without DMG, FIG. 2
Procedure: as §1
A so-called CyQUANT assay was carried out to measure the proliferation. In this fluorescence-based assay, the fluorescent dye used binds to DNA (deoxyribonucleic acid), with the content of cellular DNA being a direct measure of the number of cells in a sample.
Human epidermal keratinocyte cells (HaCaT) were seeded in a 96-well plate at a cell density of 5,000 cells/well and cultured in medium (DMEM with 10% FBS, 1% penicillin-streptomycin, 0.5% fungizone). The next day and after a further 24 h as well as 48 h and 72 h of cultivation at 37° C. and 5% by volume CO2, the cell culture medium without (control) or with the active ingredient concentrations already present was changed. […]
The cell proliferation was determined using the CyQUANT assay. The fluorescence was measured in triplicate and normalized to the control at 24 hours. […]

Compound: CN(C)CC(=O)[O-].[Na+] [DMG, sodium dimethylglycinate]
- relative gene expression of VEGF (normalized to GAPDH) (VEGF): significant increase; also recorded: significantly increased
- cell viability (MTT absorption normalized to the control at 24 hours) ([1]; after 48 h of cultivation): clear increase
- cell viability (MTT absorption normalized to the control at 24 hours) ([1]; after 72 h of cultivation): clear increase
- cell proliferation (CyQUANT fluorescence normalized to the control at 24 hours) ([2]; after 48 h of cultivation): clear increase
- cell proliferation (CyQUANT fluorescence normalized to the control at 24 hours) ([2]; after 72 h of cultivation): clear increase

Reference: US20240115531A1, “Composition for Treating Hair and Scalp” (DR. KURT WOLFF GMBH & CO. KG, priority 2020, published 2024)
